Measured values published in patent US4650785A, “Pharmaceutical composition having an excellent absorption property” (Ajinomoto Company Incoporated, priority 1982, dated 1987).
Where a SMILES comes first, the peptide text is derived from it. [ ]: non-standard residue; d: D form. The star is where a group is joined. Cbz = O=C(OCc1ccccc1)*

Tests used:
Female ICR-CD-1 mice = assay: Oral administration of absorption promoter mixed with insulin to mice: decrease in blood glucose and elevation of blood insulin versus control; format: in vivo; design: Degree of Elevation of Blood Insulin: unit not given here
Experimental: The absorption promoter samples listed in Table 2 were dissolved or suspended in 0.5% CMC-0.05M tris-HCl buffers (pH: 7.8) and the solutions or suspensions were mixed with aqueous insulin solution. Female ICR-CD-1 mice 5 to 7 weeks old were orally administered predetermined amounts of the mixtures. A predetermined duration later, the percent decrease in blood glucose and the degree of elevation of blood insulin as compared with the control group were measured. The symbol "Z" in the structural formulas in the table represents a benzyloxycarbonyl group. The upper figures in the columns "effectiveness" represent the percent decrease in blood glucose and the lower parenthesized figures indicate the degree of elevation in blood insulin.

Female CD-1(ICR) Mice = assay: Toxicity studies of phenylalanine derivatives (LD50); format: in vivo
Text: Toxicity Studies of Phenylalanine Derivatives with Oral IN Potentiating Activity in Female CD-1(ICR) Mice are as follows:
Phenylalanine derivatives were suspended in 0.5% CMC.

[1] = oral, mice, sample 3.0 mg/10 g with insulin 2.5 U/10 g body weight, 30 minutes, vs control group
[2] = oral, mice, sample 3.0 mg/10 g with insulin 2.5 U/10 g body weight, 60 minutes, vs control group
[3] = oral, mice, sample 6.0 mg/10 g with insulin 2.5 U/10 g body weight, 30 minutes, vs control group
[4] = oral, mice, sample 6.0 mg/10 g with insulin 2.5 U/10 g body weight, 60 minutes, vs control group
[5] = oral, mice, sample 12.5 mg/10 g with insulin 2.5 U/10 g body weight, 30 minutes, vs control group
[6] = oral, mice, sample 12.5 mg/10 g with insulin 2.5 U/10 g body weight, 60 minutes, vs control group
[7] = oral, mice, sample 3.1 mg/10 g with insulin 2.5 U/10 g body weight, 30 minutes, vs control group
[8] = oral, mice, sample 3.1 mg/10 g with insulin 2.5 U/10 g body weight, 60 minutes, vs control group
[9] = oral, mice, sample 1.5 mg/10 g with insulin 2.5 U/10 g body weight, 30 minutes, vs control group
[10] = oral, mice, sample 1.5 mg/10 g with insulin 2.5 U/10 g body weight, 60 minutes, vs control group

## O=C(NC(Cc1ccc(F)cc1)C(=O)N[C@@H](Cc1ccccc1)C(=O)O)OCc1ccccc1 (mixture of isomers) [Sample S-22, N-benzyloxycarbonyl-4-fluoro-DL-phenylalanyl-L-phenylalanine]
Female ICR-CD-1 mice; [1]
  Decrease in Blood Glucose (%): 63.7%
Female ICR-CD-1 mice; [2]
  Decrease in Blood Glucose (%): 51.9%

## O=C(N[C@@H](Cc1ccccc1)C(=O)NC(Cc1ccc(F)cc1)C(=O)O)OCc1ccccc1 (mixture of isomers) [Sample S-23, N-benzyloxycarbonyl-L-phenylalanyl-4-fluoro-DL-phenylalanine]
Female ICR-CD-1 mice; [1]
  Decrease in Blood Glucose (%): 67.5%
Female ICR-CD-1 mice; [2]
  Decrease in Blood Glucose (%): 39.4%

## O=C(COc1ccc([N+](=O)[O-])cc1)NC(Cc1ccc([N+](=O)[O-])cc1)C(=O)O (racemic) [Sample S-2, N-[(4-nitrophenoxy)acetyl]-4-nitro-DL-phenylalanine]
Female ICR-CD-1 mice; [3]
  Decrease in Blood Glucose (%): 23.2%
  Degree of Elevation of Blood Insulin: > 119
Female ICR-CD-1 mice; [4]
  Decrease in Blood Glucose (%): 60.0%
  Degree of Elevation of Blood Insulin: 89.7

## Cc1ccc(S(=O)(=O)NC(Cc2ccccc2)C(=O)O)cc1 (racemic) [Sample S-34, N-(4-toluenesulfonyl)-DL-phenylalanine]
Female ICR-CD-1 mice; [3]
  Decrease in Blood Glucose (%): 27.3%
  Degree of Elevation of Blood Insulin: 13.8
Female ICR-CD-1 mice; [4]
  Decrease in Blood Glucose (%): 93.1%
  Degree of Elevation of Blood Insulin: 6.52

## O=C(Cc1cccc2ccccc12)N[C@@H](Cc1ccccc1)C(=O)O [Sample S-1, N-[(1-naphthyl)acetyl]-L-phenylalanine]
Female ICR-CD-1 mice; [3]
  Decrease in Blood Glucose (%): 84.9%
  Degree of Elevation of Blood Insulin: 56.4
Female ICR-CD-1 mice; [4]
  Decrease in Blood Glucose (%): 75.4%
  Degree of Elevation of Blood Insulin: 60.0

## O=C(C=Cc1ccccc1)N[C@@H](Cc1ccccc1)C(=O)O [Sample S-3, N-cinnamoyl-L-phenylalanine]
Female ICR-CD-1 mice; [3]
  Decrease in Blood Glucose (%): 84.4%
  Degree of Elevation of Blood Insulin: 34.2
Female ICR-CD-1 mice; [4]
  Decrease in Blood Glucose (%): 84.3%
  Degree of Elevation of Blood Insulin: 68.1
Female CD-1(ICR) Mice; mouse, in vivo
  LD50 (mg/kg): > 2,500 mg/kg

## O=C(N[C@@H](Cc1ccc(OC(=O)OCc2ccccc2)cc1)C(=O)O)OCc1ccccc1 [Sample S-4, N,O-bis-(benzyloxycarbonyl)-L-tyrosine]
Female ICR-CD-1 mice; [1]
  Decrease in Blood Glucose (%): 52.7%
  Degree of Elevation of Blood Insulin: 6.54
Female ICR-CD-1 mice; [2]
  Decrease in Blood Glucose (%): 31.1%
  Degree of Elevation of Blood Insulin: 2.04

## O=C(COc1ccccc1)N[C@@H](Cc1ccccc1)C(=O)O [Sample S-5, N-phenoxyacetyl-L-phenylalanine]
Female ICR-CD-1 mice; [5]
  Decrease in Blood Glucose (%): 57.9%
  Degree of Elevation of Blood Insulin: 88.5
Female ICR-CD-1 mice; [6]
  Decrease in Blood Glucose (%): 33.5%
  Degree of Elevation of Blood Insulin: 18.0
Female CD-1(ICR) Mice; mouse, in vivo
  LD50 (mg/kg): > 4,000 mg/kg

## O=C(COc1ccccc1)N[C@@H](Cc1ccc([N+](=O)[O-])cc1)C(=O)O [Sample S-6, N-phenoxyacetyl-4-nitro-L-phenylalanine]
Female ICR-CD-1 mice; [7]
  Decrease in Blood Glucose (%): 21.5%
  Degree of Elevation of Blood Insulin: 20.6
Female ICR-CD-1 mice; [8]
  Decrease in Blood Glucose (%): 44.7%
  Degree of Elevation of Blood Insulin: 21.8

## O=C(N[C@@H](Cc1ccccc1)C(=O)N[C@@H](Cc1ccccc1)C(=O)O)OCc1ccccc1 [Sample S-7, N-benzyloxycarbonyl-L-phenylalanyl-L-phenylalanine] (Cbz-Phe-Phe-OH)
Female ICR-CD-1 mice; [1]
  Decrease in Blood Glucose (%): 70.0%
  Degree of Elevation of Blood Insulin: 7.72
Female ICR-CD-1 mice; [2]
  Decrease in Blood Glucose (%): 40.6%
  Degree of Elevation of Blood Insulin: 9.35
Female CD-1(ICR) Mice; female CD-1(ICR) mice, suspended in 0.5% CMC
  LD50 (mg/kg): > 3,000 mg/kg

## O=C(CCCc1ccccc1)N[C@@H](Cc1ccccc1)C(=O)O [Sample S-8, N-(4-phenylbutyrol)-L-phenylalanine]
Female ICR-CD-1 mice; [3]
  Decrease in Blood Glucose (%): 57.1%
  Degree of Elevation of Blood Insulin: 7.31
Female ICR-CD-1 mice; [4]
  Decrease in Blood Glucose (%): 35.6%
  Degree of Elevation of Blood Insulin: 9.64

## O=C(COc1ccccc1)N[C@H](Cc1ccccc1)C(=O)O [Sample S-9, N-phenoxyacetyl-D-phenylalanine]
Female ICR-CD-1 mice; [1]
  Decrease in Blood Glucose (%): 37.3%
  Degree of Elevation of Blood Insulin: 11.8
Female ICR-CD-1 mice; [2]
  Decrease in Blood Glucose (%): 29.7%
  Degree of Elevation of Blood Insulin: 2.67

## O=C(N[C@@H](Cc1ccccc1)C(=O)O)c1ccccc1 [Sample S-14, N-benzoyl-L-phenylalanine]
Female ICR-CD-1 mice; [3]
  Decrease in Blood Glucose (%): 35.2%
  Degree of Elevation of Blood Insulin: 6.31
Female ICR-CD-1 mice; [4]
  Decrease in Blood Glucose (%): 37.8%
  Degree of Elevation of Blood Insulin: 3.31

## O=C(N[C@@H](Cc1ccc(O)cc1)C(=O)O)OCc1ccccc1 [Sample S-16, N-benzyloxycarbonyl-L-tyrosine]
Female ICR-CD-1 mice; [3]
  Decrease in Blood Glucose (%): 31.0%
  Degree of Elevation of Blood Insulin: 50.0
Female ICR-CD-1 mice; [4]
  Degree of Elevation of Blood Insulin: 2.99
Female ICR-CD-1 mice; po, 6 mg, 1 h
  Decrease in Blood Glucose (%): 27.2%

## O=C(N[C@H](Cc1ccccc1)C(=O)N[C@@H](Cc1ccccc1)C(=O)O)OCc1ccccc1 [Sample S-20, N-benzyloxycarbonyl-D-phenylalanyl-L-phenylalanine] (Cbz-[dF]-Phe-OH)
Female ICR-CD-1 mice; [9]
  Decrease in Blood Glucose (%): 22.4%
  Degree of Elevation of Blood Insulin: 2.33
Female ICR-CD-1 mice; [10]
  Decrease in Blood Glucose (%): 32.7%
  Degree of Elevation of Blood Insulin: 2.46

## O=C(N[C@@H](Cc1ccccc1)C(=O)N[C@H](Cc1ccccc1)C(=O)O)OCc1ccccc1 [Sample S-21, N-benzyloxycarbonyl-L-phenylalanyl-D-phenylalanine] (Cbz-Phe-[dF]-OH)
Female ICR-CD-1 mice; [3]
  Decrease in Blood Glucose (%): 42.6%
  Degree of Elevation of Blood Insulin: 14.9
Female ICR-CD-1 mice; [4]
  Decrease in Blood Glucose (%): 32.7%
  Degree of Elevation of Blood Insulin: 5.26

## O=C(C=Cc1ccc(Cl)cc1)N[C@@H](Cc1ccccc1)C(=O)O [Sample S-24, N-(4-chlorocinnamoyl)-L-phenylalanine]
Female ICR-CD-1 mice; [9]
  Decrease in Blood Glucose (%): 37.1%
  Degree of Elevation of Blood Insulin: 5.46
Female ICR-CD-1 mice; [10]
  Decrease in Blood Glucose (%): 27.4%
  Degree of Elevation of Blood Insulin: 3.04

## O=C(C=Cc1ccc(Cl)cc1)N[C@H](Cc1ccccc1)C(=O)O [Sample S-25, N-(4-chlorocinnamoyl)-D-phenylalanine]
Female ICR-CD-1 mice; [9]
  Decrease in Blood Glucose (%): 34.9%
Female ICR-CD-1 mice; [10]
  Decrease in Blood Glucose (%): 29.5%

## Cc1ccc(C=CC(=O)N[C@@H](Cc2ccccc2)C(=O)O)cc1 [Sample S-27, N-(4-methylcinnamoyl)-L-phenylalanine]
Female ICR-CD-1 mice; [9]
  Decrease in Blood Glucose (%): 61.5%
  Degree of Elevation of Blood Insulin: 7.76
Female ICR-CD-1 mice; [10]
  Decrease in Blood Glucose (%): 34.4%
  Degree of Elevation of Blood Insulin: 1.0

## O=C(C=Cc1cccc(C(F)(F)F)c1)N[C@@H](Cc1ccccc1)C(=O)O [Sample S-30, N-(3-trifluoromethylcinnamoyl)-L-phenylalanine]
Female ICR-CD-1 mice; [1]
  Decrease in Blood Glucose (%): 48.8%
Female ICR-CD-1 mice; [2]
  Decrease in Blood Glucose (%): 44.4%

## O=C(N[C@@H](Cc1ccccc1)C(=O)O)C(F)=Cc1ccccc1 [Sample S-31, N-(α-fluorocinnamoyl)-L-phenylalanine]
Female ICR-CD-1 mice; [1]
  Decrease in Blood Glucose (%): 33.5%
Female ICR-CD-1 mice; [2]
  Decrease in Blood Glucose (%): 72.5%

## COc1cccc(C=CC(=O)N[C@@H](Cc2ccccc2)C(=O)N[C@@H](Cc2ccccc2)C(=O)O)c1 [Sample S-32, N-(3-methoxycinnamoyl)-L-phenylalanyl-L-phenylalanine]
Female ICR-CD-1 mice; [2]
  Decrease in Blood Glucose (%): 23.8%
  Degree of Elevation of Blood Insulin: 4.55

## Cc1ccc(S(=O)(=O)N[C@@H](Cc2ccccc2)C(=O)O)cc1 [Sample S-33, N-(4-toluenesulfonyl)-L-phenylalanine]
Female ICR-CD-1 mice; [3]
  Decrease in Blood Glucose (%): 51.6%
  Degree of Elevation of Blood Insulin: 18.1
Female ICR-CD-1 mice; [4]
  Decrease in Blood Glucose (%): 21.4%
  Degree of Elevation of Blood Insulin: 6.48

## O=C(C=Cc1cccc(C(F)(F)F)c1)N[C@H](Cc1ccccc1)C(=O)O [Sample S-36, N-(3-trifluoromethylcinnamoyl)-D-phenylalanine]
Female ICR-CD-1 mice; [1]
  Decrease in Blood Glucose (%): 52.0%
Female ICR-CD-1 mice; [2]
  Decrease in Blood Glucose (%): 49.1%
